Source: ChEMBL document CHEMBL5154911, “Palmatine Derivatives as Potential Antiplatelet Aggregation Agents via Protein Kinase G/Vasodilator-Stimulated Phosphoprotein and Phosphatidylinositol 3-Kinase/Akt Phosphorylation” (J Med Chem, 2022)

Assay: Antiplatelet activity against ADP-induced C57BL/6J mouse platelet aggregation assessed as maximal aggregration rate at 10 uM preincubated for 10 mins followed by ADP addition relative to control
Format: functional

SMILES	%max
COc1cc2c(cc1OC)-c1c(Cc3cc(C)cc(C)c3)c3ccc(OC)c(OC)c3c[n+]1CC2.[Br-]	39.4%
COc1cc2c(cc1OC)-c1cc3ccc(OC)c(OCc4ccc(C)cc4)c3c[n+]1CC2.[Br-]	35.2%
COc1cc2c(cc1OC)-c1cc3ccc(OC)c(NCc4cccc(C#N)c4)c3c[n+]1CC2.[Cl-]	36.3%
COc1cc2c(cc1OC)-c1c(Cc3cccc(C)c3)c3ccc(OC)c(OC)c3c[n+]1CC2.[Br-]	41.4%
COc1cc2c(cc1OC)-c1cc3ccc(OC)c(NC(=O)c4ccccc4)c3c[n+]1CC2.[Cl-]	35.8%
COc1cc2c(cc1OC)-c1cc3ccc(OC)c(NCc4ccccc4)c3c[n+]1CC2.[Cl-]	37.3%
COc1cc2c(cc1OC)-c1cc3ccc(OC)c(OCc4ccc(C(C)C)cc4)c3c[n+]1CC2.[Br-]	37.5%
COc1cc2c(cc1OC)-c1cc3ccc(OC)c(OCc4ccc(C#N)cc4)c3c[n+]1CC2.[Br-]	42.1%
COc1cc2c(cc1OC)-c1cc3ccc(OC)c(NC(=O)C4CCCC4)c3c[n+]1CC2.[Cl-]	34.9%
Br.COc1cc2c(cc1OC)-c1cc3ccc(OC)c(OCc4ccccc4[N+](=O)[O-])c3c[n+]1CC2	39.7%
Br.COc1cc2c(cc1OC)-c1cc3ccc(OC)c(OCc4cccc([N+](=O)[O-])c4)c3c[n+]1CC2	33.3%
COc1cc2c(cc1OC)-c1cc3ccc(OC)c(NC(=O)C4CCCCC4)c3c[n+]1CC2.[Cl-]	37.7%
CCC(=O)Oc1c(OC)ccc2cc3[n+](cc12)CCc1cc(OC)c(OC)cc1-3.[Cl-]	40.1%
COc1cc2c(cc1OC)-c1cc3ccc(OC)c(OCCC4CCCCC4)c3c[n+]1CC2.[Br-]	36.5%
CCCCCNc1c(OC)ccc2cc3[n+](cc12)CCc1cc(OC)c(OC)cc1-3.[Cl-]	37.8%
Br.COc1cc2c(cc1OC)-c1c(Cc3ccc([N+](=O)[O-])cc3)c3ccc(OC)c(OC)c3c[n+]1CC2	38.6%
COc1cc2c(cc1OC)-c1cc3ccc(OC)c(OCc4cccc(C#N)c4)c3c[n+]1CC2.[Br-]	35.5%
COc1cc2c(cc1OC)-c1cc3ccc(OC)c(OC(=O)c4ccccc4)c3c[n+]1CC2.[Cl-]	42.6%
COc1cc2c(cc1OC)-c1cc3ccc(OC)c(OCC4CCCC4)c3c[n+]1CC2.[Br-]	35.4%

SMILES	%max
COc1cc2c(cc1OC)-c1cc3ccc(OC)c(OC(=O)c4ccccc4C)c3c[n+]1CC2.[Cl-]	38%
COc1cc2c(cc1OC)-c1cc3ccc(OC)c(NC(=O)c4ccc(F)cc4)c3c[n+]1CC2.[Cl-]	37.1%
CCCC(=O)Oc1c(OC)ccc2cc3[n+](cc12)CCc1cc(OC)c(OC)cc1-3.[Cl-]	39.8%
COc1cc2c(cc1OC)-c1cc3ccc(OC)c(NC(=O)c4cccc(F)c4)c3c[n+]1CC2.[Cl-]	40.6%
COc1ccc(C(=O)Nc2c(OC)ccc3cc4[n+](cc23)CCc2cc(OC)c(OC)cc2-4)cc1.[Cl-]	38.5%
COc1ccc(CNc2c(OC)ccc3cc4[n+](cc23)CCc2cc(OC)c(OC)cc2-4)cc1.[Cl-]	35.6%
COc1cc2c(cc1OC)-c1cc3ccc(OC)c(OCc4ccc(C(F)(F)F)cc4)c3c[n+]1CC2.[Br-]	37.7%
COc1cc2c(cc1OC)-c1c(C3C=CCCC3)c3ccc(OC)c(OC)c3c[n+]1CC2.[Br-] (stereo unspecified)	39.8%
CCCCCCCOc1c(OC)ccc2cc3[n+](cc12)CCc1cc(OC)c(OC)cc1-3.[Br-]	35.3%
C=CCc1c2[n+](cc3c(OC)c(OC)ccc13)CCc1cc(OC)c(OC)cc1-2.[Br-]	36.5%
COc1cc2c(cc1OC)-c1cc3ccc(OC)c(OCc4cccc(Br)c4)c3c[n+]1CC2.[Br-]	39.3%
CCOc1c(OC)ccc2cc3[n+](cc12)CCc1cc(OC)c(OC)cc1-3.[Br-]	34.6%
COc1cc2c(cc1OC)-c1cc3ccc(OC)c(OCc4ccccc4C)c3c[n+]1CC2.[Br-]	37.8%
C=CCOc1c(OC)ccc2cc3[n+](cc12)CCc1cc(OC)c(OC)cc1-3.[Br-]	34.3%
COc1cc(COc2c(OC)ccc3cc4[n+](cc23)CCc2cc(OC)c(OC)cc2-4)cc(OC)c1.[Br-]	38.4%
Br.COc1cc2c(cc1OC)-c1cc3ccc(OC)c(OCc4ccc([N+](=O)[O-])cc4)c3c[n+]1CC2	37.9%
COc1cc2c(cc1OC)-c1cc3ccc(OC)c(OS(=O)(=O)c4ccccc4)c3c[n+]1CC2.O=[S-](=O)c1ccccc1	39.4%
COc1cc2c(cc1OC)-c1cc3ccc(OC)c(OCC4CCC4)c3c[n+]1CC2.[Br-]	34.4%
CCC(=O)Nc1c(OC)ccc2cc3[n+](cc12)CCc1cc(OC)c(OC)cc1-3.[Cl-]	34.5%

SMILES	%max
COc1cc2c(cc1OC)-c1cc3ccc(OC)c(OCc4ccccc4)c3c[n+]1CC2.[Br-]	36.9%
COC(=O)/C=C/c1ccc(Cc2c3[n+](cc4c(OC)c(OC)ccc24)CCc2cc(OC)c(OC)cc2-3)cc1.[Br-]	38.2%
COc1cc2c(cc1OC)-c1cc3ccc(OC)c(NCc4ccc(C)cc4)c3c[n+]1CC2.[Cl-]	33.2%
CCCC(=O)Nc1c(OC)ccc2cc3[n+](cc12)CCc1cc(OC)c(OC)cc1-3.[Cl-]	34.3%
COc1cc2c(cc1OC)-c1cc3ccc(OC)c(NCc4ccc(F)cc4)c3c[n+]1CC2.[Cl-]	34.2%
COc1cc2c(cc1OC)-c1c(Cc3ccccc3C#N)c3ccc(OC)c(OC)c3c[n+]1CC2.[Br-]	40.2%
COc1cc2c(cc1OC)-c1cc3ccc(OC)c(OCc4cccc(F)c4)c3c[n+]1CC2.[Br-]	35.7%
COc1cc2c(cc1OC)-c1cc3ccc(OC)c(OC)c3c[n+]1CC2 [PALMITINE]	38.4%
CCCCOc1c(OC)ccc2cc3[n+](cc12)CCc1cc(OC)c(OC)cc1-3.[Br-]	34.4%
CCCCC(=O)Nc1c(OC)ccc2cc3[n+](cc12)CCc1cc(OC)c(OC)cc1-3.[Cl-]	37.2%
CCCCNc1c(OC)ccc2cc3[n+](cc12)CCc1cc(OC)c(OC)cc1-3.[Cl-]	33.4%
COc1cc2c(cc1OC)-c1c(Cc3ccc(C)cc3)c3ccc(OC)c(OC)c3c[n+]1CC2.[Br-]	38.3%
C/C=C/Cc1c2[n+](cc3c(OC)c(OC)ccc13)CCc1cc(OC)c(OC)cc1-2.[Br-]	40.3%
COc1cc2c(cc1OC)-c1cc3ccc(OC)c(OS(=O)(=O)c4ccc([N+](=O)[O-])cc4)c3c[n+]1CC2.O=[SH](=O)c1ccccc1	37.7%
COc1ccc(CNc2c(OC)ccc3cc4[n+](cc23)CCc2cc(OC)c(OC)cc2-4)c(OC)c1.[Cl-]	33.5%
COc1cc2c(cc1OC)-c1cc3ccc(OC)c(OCC(C)C)c3c[n+]1CC2.[Br-]	33.4%
COc1cc2c(cc1OC)-c1cc3ccc(OC)c(OCC4CCCCC4)c3c[n+]1CC2.[Br-]	33.9%
COc1cc2c(cc1OC)-c1cc3ccc(OC)c(NC(=O)C45CC6CC(CC(C6)C4)C5)c3c[n+]1CC2.[Cl-]	34.7%
